We go through six compounds from paper PMC5486949 (SLAS discovery, 2017).

pEC50, pIC50: −log10 of the molar value. Like-named read-outs stand apart in the source and are kept apart here.

For data set [1], the target named is PGC-1α/ERRα. Briefly: PGC/ERR luciferase reporter gene assay, agonist mode. The class given is cell-based, human. To be noted: for AC50 / pEC50: Homo sapiens; for AC50: read-out: AC50 PGC-ERR ↑; for pEC50: read-out: PGC-1α/ERRα (Agonist) EC50. A general note: In a reporter assay the amount or activity of a reporter protein is the signal.
Data set [2] relates to aryl hydrocarbon receptor (AhR). The settings on record: cited from earlier work.
In data set [3] the target is ERRα. The data set can be described thus: ERR luciferase reporter gene assay, agonist mode. The settings on record: for pEC50: read-out: ERRα (Agonist) EC50; for AC50: read-out: AC50 ERR ↑. It counts as cell-based, human.
For data set [4], the system named is ERR cell line (HEK293T). The data set can be described thus: Cell viability assay multiplexed with ERR antagonist mode assay. The class given is cell-based, human. To be noted: read-out: ERRα (Viability) IC50.
Data set [5] has as its system PGC/ERR cell line (HEK293T). The data set can be described thus: Cell viability assay multiplexed with PGC/ERR antagonist mode assay. The class given is cell-based, human. To be noted: read-out: PGC-1α/ERRα (Viability) IC50.
The target in data set [6] is PGC-1α/ERRα. Briefly: PGC/ERR luciferase reporter gene assay, antagonist mode. The class given is cell-based, human. To be noted: for pIC50: read-out: PGC-1α/ERRα (Antagonist) IC50.
Data set [7] concerns ERR and PGC/ERR cell lines. The data set can be described thus: Cell viability. To be noted: agonist mode, ERR and PGC/ERR lines (Fig. 3A,B).
[8] abbreviates: agonist mode, 0 = inactive or inconclusive.

As to 6-Bromoindirubin-3-oxime, the “AC50 PGC-ERR ↑” value in data set [1] (setting [8]) is recorded as 5.93 log10(M)*–1. For the same compound, the “AC50 AhR ↑” value in data set [2] was 5.48 log10(M)*–1. For the same compound, the “AC50 ERR ↑” value in data set [3] (setting [8]) was 5.78 log10(M)*–1. In addition, in data set [3] (LOPAC qHTS, dash = inconclusive or no activity), the pEC50 was 5.77.
On to `CC[n+]1c(/C=C/C=C2/N(C)c3ccccc3C2(C)C)sc2ccccc21` [AC-93253 iodide], for which the pIC50 is 5.08 in data set [4], 5.42 in data set [5] and 6.38 in data set [6].
As for `O=c1cc(-c2ccc(O)cc2)oc2cc(O)cc(O)c12` [Apigenin], the AC50 in data set [1] is 2340 nM. For the same compound, the “AC50 AhR ↑” value in data set [2] is given as 5.28 log10(M)*–1.
As for `CCCCCCCCCCCCCC(=O)O[C@@H]1[C@@H](C)[C@@]2(O)[C@@H](C=C(CO)C[C@]3(O)C(=O)C(C)=C[C@@H]23)[C@@H]2C(C)(C)[C@]12OC(C)=O` [Phorbol 12-myristate 13-acetate], in data set [1], the AC50 is 6.61 nM and the pEC50 is 8.00. Moreover, the “cytotoxicity at concentrations of outfitted points of agonist curves” value in data set [7] is given as “cytotoxicity was seen at the concentration accompanying the outfitted points”. Moreover, in data set [3] (Homo sapiens), the AC50 was 8.32 nM and the pEC50 was 8.00.
With `C=C(C)[C@H]1Cc2c(ccc3c2O[C@@H]2COc4cc(OC)c(OC)cc4[C@@H]2C3=O)O1` [Rotenone], the pIC50 was 5.88 in data set [4] (Homo sapiens, HEK-293T); 5.18 in data set [5] (Homo sapiens, HEK-293T); 7.40 in data set [6] (Homo sapiens). Besides, the AC50 in data set [6] (Homo sapiens, read-out: AC50 PGC/ERR ↓) was 74.1 nM.
Take `O=c1c2ccccc2nc2n1CCc1c-2[nH]c2ccccc12` [Rutaecarpine]: the AC50 is 13200 nM in data set [1] and 2340 nM in data set [3] (Homo sapiens). The pEC50 in data set [1] is 4.88; in data set [3] (Homo sapiens) it was 5.63. For the same compound, in data set [2], the “AC50 AhR ↑” value is listed as 5.53 log10(M)*–1.
